Reference: ChEMBL document CHEMBL1201861, “Genomics of Drug Sensitity in Cancer screening data, Wellcome Trust Sanger Institute”
pIC50: −log10 of the molar value.

Legend:
Test in all cases: cells
MeWo = assay type: functional, cell-based, Homo sapiens; settings: Homo sapiens, MeWo;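 note: growth inhibition of MeWo cells, determined by a cell viability readout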
Description: SANGER: Inhibition of human Mewo cell growth in a cell viability assay.

MC116 = assay type: functional, cell-based; settings: Homo sapiens;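 note: growth inhibition of MC116 cells, read out with a cell viability assay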
Description: SANGER: Inhibition of human MC116 cell growth in a cell viability assay.

MLMA = assay type: functional, cell-based, Homo sapiens; settings: Homo sapiens, MLMA;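 note: growth inhibition of MLMA cells (human), determined through a cell viability readout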
Description: SANGER: Inhibition of human MLMA cell growth in a cell viability assay.

NOS-1 = assay type: functional, cell-based, Homo sapiens; settings: Homo sapiens, NOS-1;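 note: growth inhibition of the human NOS-1 cell line, read out with a cell viability assay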
Description: SANGER: Inhibition of human NOS-1 cell growth in a cell viability assay.

WM-115 = assay type: functional, cell-based, Homo sapiens; settings: Homo sapiens, WM-115
Description: SANGER: Inhibition of human WM-115 cell growth in a cell viability assay.

TCC-SUP = assay type: functional, cell-based, Homo sapiens; settings: Homo sapiens, TCC-SUP;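 note: growth inhibition of TCC-SUP cells, read out with a cell viability assay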
Description: SANGER: Inhibition of human TCCSUP cell growth in a cell viability assay.

COR-L105 = assay type: functional, cell-based, Homo sapiens; settings: Homo sapiens, COR-L105;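 note: cell growth inhibition determined with a viability assay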
Description: SANGER: Inhibition of human COR-L105 cell growth in a cell viability assay.

LB1047-RCC = assay type: functional, cell-based, Homo sapiens; settings: Homo sapiens, LB1047-RCC;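 note: inhibition of cell growth, determined with a cell viability assay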
Description: SANGER: Inhibition of human LB1047-RCC cell growth in a cell viability assay.

KGN = assay type: functional, cell-based, Homo sapiens; settings: Homo sapiens, KGN;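 note: growth inhibition of KGN cells, read out with a cell viability assay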
HC-1 = assay type: functional, cell-based; settings: Homo sapiens;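 note: growth inhibition of HC-1 cells measured by a cell viability assay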
Description: SANGER: Inhibition of human HC-1 cell growth in a cell viability assay.

HCC38 = assay type: functional, cell-based, Homo sapiens; settings: Homo sapiens, HCC38;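 note: cell viability assay on the human HCC38 cell line, with IC50 marking the concentration that inhibits cell growth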
Description: SANGER: Inhibition of human HCC38 cell growth in a cell viability assay.

KOSC-2 = assay type: functional, cell-based, Homo sapiens; settings: Homo sapiens, KOSC-2;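 note: growth inhibition of KOSC-2 cells, read out by a cell viability assay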
U-118-MG = assay type: functional, cell-based, Homo sapiens; settings: Homo sapiens, U-118-MG
Description: SANGER: Inhibition of human U-118-MG cell growth in a cell viability assay.

8-MG-BA = assay type: functional, cell-based, Homo sapiens; settings: Homo sapiens, 8-MG-BA;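 note: growth inhibition of 8-MG-BA cells, read out with a cell viability assay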
Description: SANGER: Inhibition of human 8-MG-BA cell growth in a cell viability assay.

VA-ES-BJ = assay type: functional, cell-based, Homo sapiens; settings: Homo sapiens, VA-ES-BJ;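 note: growth inhibition of the VA-ES-BJ cell line, read out by a cell viability assay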
Description: SANGER: Inhibition of human VA-ES-BJ cell growth in a cell viability assay.

MFE-280 = assay type: functional, cell-based, Homo sapiens; settings: Homo sapiens, MFE-280;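 note: growth inhibition of MFE-280 cells, determined with a cell viability readout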
Description: SANGER: Inhibition of human MFE-280 cell growth in a cell viability assay.

RXF 393 = assay type: functional, cell-based; settings: Homo sapiens;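 note: growth inhibition of human RXF 393 cells, read out with a cell viability assay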
ES8 = assay type: functional, cell-based, Homo sapiens; settings: Homo sapiens, ES8;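 note: growth inhibition of human ES8 cells, read out with a cell viability assay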
Description: SANGER: Inhibition of human ES8 cell growth in a cell viability assay.

CTV-1 = assay type: functional, cell-based; settings: Homo sapiens;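 note: growth inhibition of the cell line, read out with a cell viability assay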
Description: SANGER: Inhibition of human CTV-1 cell growth in a cell viability assay.

ML-2 = assay type: functional, cell-based; settings: Homo sapiens;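 note: growth inhibition of ML-2 cells, measured with a cell viability readout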
Description: SANGER: Inhibition of human ML-2 cell growth in a cell viability assay.

SH-4 = assay type: functional, cell-based, Homo sapiens; settings: Homo sapiens, SH-4;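 note: growth inhibition of SH-4 cells, read out with a cell viability assay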
Description: SANGER: Inhibition of human SH-4 cell growth in a cell viability assay.

HuP-T3 = assay type: functional, cell-based, Homo sapiens; settings: Homo sapiens, HuP-T3;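 note: HuP-T3 cell growth inhibition, read out with a cell viability assay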
Description: SANGER: Inhibition of human HuP-T3 cell growth in a cell viability assay.

LB2518-MEL = assay type: functional, cell-based, Homo sapiens; settings: Homo sapiens, LB2518-MEL;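 note: growth inhibition of human LB2518-MEL cells, measured with a cell viability assay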
Description: SANGER: Inhibition of human LB2518-MEL cell growth in a cell viability assay.

OVCAR-4 = assay type: functional, cell-based, Homo sapiens; settings: Homo sapiens, OVCAR-4;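 note: growth inhibition of human OVCAR-4 cells, measured with a cell viability assay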
Description: SANGER: Inhibition of human OVCAR-4 cell growth in a cell viability assay.

NCI-H226 = assay type: functional, cell-based, Homo sapiens; settings: Homo sapiens, NCI-H226;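 note: cell viability read-out used to gauge growth inhibition of the cells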
Description: SANGER: Inhibition of human NCI-H226 cell growth in a cell viability assay.

DMS-273 = assay type: functional, cell-based, Homo sapiens; settings: Homo sapiens, DMS-273
Description: SANGER: Inhibition of human DMS-273 cell growth in a cell viability assay.

KS-1 = assay type: functional, cell-based, Homo sapiens; settings: Homo sapiens, KS-1;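 note: growth inhibition of KS-1 cells, read out with a cell viability assay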
Description: SANGER: Inhibition of human KS-1 cell growth in a cell viability assay.

MOLT-16 = assay type: functional, cell-based; settings: Homo sapiens;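 note: growth inhibition of human MOLT-16 cells, read out with a cell viability assay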
Description: SANGER: Inhibition of human MOLT-16 cell growth in a cell viability assay.

IST-SL1 = assay type: functional, cell-based, Homo sapiens; settings: Homo sapiens, IST-SL1;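 note: growth inhibition of human IST-SL1 cells, read out with a cell viability assay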
Description: SANGER: Inhibition of human IST-SL1 cell growth in a cell viability assay.

SiHa = assay type: functional, cell-based, Homo sapiens; settings: Homo sapiens, SiHa;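 note: Viability-based readout of growth inhibition in SiHa cells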
Description: SANGER: Inhibition of human SiHa cell growth in a cell viability assay.

KU812 cell line = assay type: functional, cell-based; settings: Homo sapiens;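 note: growth inhibition of KU812 cells, read out with a cell viability assay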
Description: SANGER: Inhibition of human KU812 cell growth in a cell viability assay.

HO-1-N-1 = assay type: functional, cell-based, Homo sapiens; settings: Homo sapiens, HO-1-N-1;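 note: growth inhibition of human HO-1-N-1 cells, read out with a cell viability assay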
Description: SANGER: Inhibition of human HO-1-N-1 cell growth in a cell viability assay.

IGROV-1 = assay type: functional, cell-based, Homo sapiens; settings: Homo sapiens, IGROV-1;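 note: reduction of IGROV-1 cell growth, read out with a viability assay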
Description: SANGER: Inhibition of human IGROV-1 cell growth in a cell viability assay.

EW-13 = assay type: functional, cell-based; settings: Homo sapiens;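 note: growth inhibition of EW-13 cells, read out with a cell viability assay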
Description: SANGER: Inhibition of human EW-13 cell growth in a cell viability assay.

OCUB-M = assay type: functional, cell-based, Homo sapiens; settings: Homo sapiens, OCUB-M;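 note: growth inhibition of the cancer cell line, read out through a cell viability assay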
Description: SANGER: Inhibition of human OCUB-M cell growth in a cell viability assay.

UO-31 = assay type: functional, cell-based; settings: Homo sapiens;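 note: cell viability assay measuring inhibition of cell growth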
Description: SANGER: Inhibition of human U031 cell growth in a cell viability assay.

MZ1-PC = assay type: functional, cell-based, Homo sapiens; settings: Homo sapiens, MZ1-PC;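 note: cell viability assay measuring growth inhibition of human MZ1-PC cells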
Description: SANGER: Inhibition of human MZ1-PC cell growth in a cell viability assay.

MPP-89 = assay type: functional, cell-based, Homo sapiens; settings: Homo sapiens, MPP-89;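 note: growth inhibition of human MPP-89 cells, read out with a cell viability assay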
Description: SANGER: Inhibition of human MPP-89 cell growth in a cell viability assay.

HH = assay type: functional, cell-based; settings: Homo sapiens
Description: SANGER: Inhibition of human HH cell growth in a cell viability assay.

HCC70 = assay type: functional, cell-based, Homo sapiens; settings: Homo sapiens, HCC70;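 note: cell viability assay measuring how strongly the compound suppresses proliferation of HCC70 cells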
Description: SANGER: Inhibition of human HCC70 cell growth in a cell viability assay.

KP-N-YS = assay type: functional, cell-based; settings: Homo sapiens;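 note: cell viability assay measuring inhibition of cell line growth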
Description: SANGER: Inhibition of human KP-N-YS cell growth in a cell viability assay.

CWR22R = assay type: functional, cell-based, Homo sapiens; settings: Homo sapiens, 22Rv1;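 note: growth inhibition of 22Rv1 cells, read out with a cell viability assay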
Description: SANGER: Inhibition of human 22RV1 cell growth in a cell viability assay.

KARPAS-45 = assay type: functional, cell-based; settings: Homo sapiens;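 note: inhibition of cell line growth, read out through a viability assay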
Description: SANGER: Inhibition of human KARPAS-45 cell growth in a cell viability assay.

SKG-IIIa = assay type: functional, cell-based, Homo sapiens; settings: Homo sapiens, SKG-IIIa;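 note: cell growth inhibition, read out with a cell viability assay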
Description: SANGER: Inhibition of human SKG-IIIa cell growth in a cell viability assay.

NCI-H292 = assay type: functional, cell-based, Homo sapiens; settings: Homo sapiens, NCI-H292;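 note: growth inhibition of NCI-H292 cells, read out with a cell viability assay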
Description: SANGER: Inhibition of human NCI-H292 cell growth in a cell viability assay.

CHP-212 = assay type: functional, cell-based, Homo sapiens; settings: Homo sapiens, CHP-212
Description: SANGER: Inhibition of human CHP-212 cell growth in a cell viability assay.

NCI-H510A = assay type: functional, cell-based; settings: Homo sapiens;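 note: growth inhibition of NCI-H510A cells, read out with a cell viability assay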
SF-295 = assay type: functional, cell-based, Homo sapiens; settings: Homo sapiens, SF-295; read-out: IC50;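 note: growth inhibition of SF-295 cells, read out with a cell viability assay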
Description: SANGER: Inhibition of human SF295 cell growth in a cell viability assay.

NOMO-1 = assay type: functional, cell-based; settings: Homo sapiens;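 note: growth inhibition of human NOMO-1 cells measured by a cell viability assay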
SNU-449 = assay type: functional, cell-based, Homo sapiens; settings: Homo sapiens, SNU-449
Description: SANGER: Inhibition of human SNU-449 cell growth in a cell viability assay.

KE-37 = assay type: functional, cell-based; settings: Homo sapiens;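 note: growth inhibition of KE-37 cells, read out with a cell viability assay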
Description: SANGER: Inhibition of human KE-37 cell growth in a cell viability assay.

5637 = assay type: functional, cell-based, Homo sapiens; settings: Homo sapiens
Description: SANGER: Inhibition of human 5637 cell growth in a cell viability assay.

OS-RC-2 = assay type: functional, cell-based, Homo sapiens; settings: Homo sapiens, OS-RC-2;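 note: growth inhibition of human OS-RC-2 cells, measured by a cell viability assay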
Description: SANGER: Inhibition of human OS-RC-2 cell growth in a cell viability assay.

Question: How did the pIC50 (MeWo) turn out when `Cc1ccc(Nc2nccc(N(C)c3ccc4c(C)n(C)nc4c3)n2)cc1S(N)(=O)=O` [PAZOPANIB] was run?
Answer: < 5.10

Question: And the pIC50 (MC116)?
Answer: < 5.10

Question: And the pIC50 (MLMA)?
Answer: < 5.10

Question: What about the pIC50 (NOS-1) of the same compound?
Answer: 6.18

Question: What about the pIC50 (WM-115) of the same compound?
Answer: 5.24

Question: What about the pIC50 (TCC-SUP) of the same compound?
Answer: < 5.10

Question: And the pIC50 (COR-L105)?
Answer: < 5.10

Question: And the pIC50 (LB1047-RCC)?
Answer: 5.45

Question: And the pIC50 (KGN)?
Answer: 5.39

Question: And the pIC50 (HC-1)?
Answer: < 5.10

Question: What about the pIC50 (HCC38) of the same compound?
Answer: < 5.10

Question: And the pIC50 (KOSC-2)?
Answer: < 5.10

Question: What about the pIC50 (U-118-MG) of the same compound?
Answer: < 5.10

Question: And the pIC50 (8-MG-BA)?
Answer: < 5.10

Question: And the pIC50 (VA-ES-BJ)?
Answer: < 5.10

Question: What about the pIC50 (MFE-280) of the same compound?
Answer: < 5.10

Question: What about the pIC50 (RXF 393) of the same compound?
Answer: < 5.10

Question: And the pIC50 (ES8)?
Answer: < 5.10

Question: What about the pIC50 (CTV-1) of the same compound?
Answer: 5.21

Question: And the pIC50 (ML-2)?
Answer: < 5.10

Question: And the pIC50 (SH-4)?
Answer: < 5.10

Question: And the pIC50 (HuP-T3)?
Answer: < 5.10

Question: What about the pIC50 (LB2518-MEL) of the same compound?
Answer: < 5.10

Question: And the pIC50 (OVCAR-4)?
Answer: < 5.10

Question: And the pIC50 (NCI-H226)?
Answer: < 5.10

Question: And the pIC50 (DMS-273)?
Answer: 5.30

Question: What about the pIC50 (KS-1) of the same compound?
Answer: < 5.10

Question: And the pIC50 (MOLT-16)?
Answer: < 5.10

Question: What about the pIC50 (IST-SL1) of the same compound?
Answer: < 5.10

Question: What about the pIC50 (SiHa) of the same compound?
Answer: < 5.10

Question: What about the pIC50 (KU812 cell line) of the same compound?
Answer: 5.27

Question: And the pIC50 (HO-1-N-1)?
Answer: < 5.10

Question: And the pIC50 (IGROV-1)?
Answer: 5.49

Question: What about the pIC50 (EW-13) of the same compound?
Answer: < 5.10

Question: What about the pIC50 (OCUB-M) of the same compound?
Answer: 5.48

Question: What about the pIC50 (UO-31) of the same compound?
Answer: < 5.10

Question: And the pIC50 (MZ1-PC)?
Answer: < 5.10

Question: What about the pIC50 (MPP-89) of the same compound?
Answer: < 5.10

Question: What about the pIC50 (HH) of the same compound?
Answer: < 5.10

Question: And the pIC50 (HCC70)?
Answer: < 5.10

Question: And the pIC50 (KP-N-YS)?
Answer: < 5.10

Question: And the pIC50 (CWR22R)?
Answer: < 5.10

Question: And the pIC50 (KARPAS-45)?
Answer: < 5.10

Question: And the pIC50 (SKG-IIIa)?
Answer: < 5.10

Question: What about the pIC50 (NCI-H292) of the same compound?
Answer: < 5.10

Question: And the pIC50 (CHP-212)?
Answer: < 5.10

Question: And the pIC50 (NCI-H510A)?
Answer: < 5.10

Question: What about the pIC50 (SF-295) of the same compound?
Answer: < 5.10

Question: And the pIC50 (NOMO-1)?
Answer: < 5.10

Question: And the pIC50 (SNU-449)?
Answer: < 5.10

Question: And the pIC50 (KE-37)?
Answer: < 5.10

Question: And the pIC50 5637?
Answer: < 5.10

Question: And the pIC50 (OS-RC-2)?
Answer: < 5.10
